Test [1] relates to thymus cancer cells (Ty-82 cells). Briefly: Cytotoxicity to thymus cancer cells (Ty-82 cells), WST-1. To be noted: Homo sapiens, TY82, 72 h.
For test [2], the target named is BRD4 (BD1+BD2) bromodomain (Homo sapiens (Human), UniProt O60885). Put plainly: BRD4 binding inhibition (AlphaScreen, GST-BRD4 vs tetraacetylated histone H4 peptide). The method, boiled down: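 GST-BRD4 (BD1+BD2) and biotinylated tetraacetyl-histone H4 peptide, each at 100 nM in HEPES pH 7.4 buffer with BSA and DTT, were combined with compound. Glutathione acceptor and streptavidin donor beads were added, then incubated 30 min at room temperature in the dark. Read-out was AlphaScreen signal.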
(In general: In Alpha technology, singlet oxygen from a donor bead excites a nearby acceptor bead.)

Test [3] concerns acute myelogenous leukemia cells (MV-4-11 cells). Put plainly: Cytotoxicity to acute myelogenous leukemia cells (MV-4-11 cells), CCK-8. To be noted: Homo sapiens, MV4-11, 72 h.
The mark [4] stands for this setting: read-out: IC50, cytotoxicity against thymus cancer cells.
Where [5] appears, read: read-out: Ty-82 Cytotoxicity IC50.
Where [6] appears, read: GST-BRD4 (BD1+BD2) / biotinylated acetyl-histone H4 (Lys5,8,12,16) peptide, read-out: IC50, BRD4 binding inhibition.
Setting [7] is: GST-BRD4 (BD1+BD2) vs biotinylated acetyl-histone H4 peptide, AlphaScreen, read-out: BRD4 IC50.
Where [8] appears, read: read-out: IC50, cytotoxicity against acute myelogenous leukemia cells.
The mark [9] stands for this setting: read-out: MV-4-11 Cytotoxicity IC50.

Molecules are shown by their SMILES. Where two headings read alike, the source gives them in different places.

As to `C=CCOC(=O)NCCCCNc1nc2cc(OC)c(OC)cc2n2c(C)nnc12` [Example 65, [4-(7,8-dimethoxy-1-methyl-[1,2,4]triazolo[4,3-a]quinoxaline-4-ylamino)-butyl]-carbamic acid allylester], the half-maximal inhibitory concentration (IC50) (usually the concentration needed to halve the response being measured) in test [1] (setting [4]) was no more than 500 nM; in test [1] (setting [5]) it was 370 nM; in test [2] (setting [6]), no more than 50 nM; in test [2] (setting [7]), 22 nM; in test [3] (setting [8]) it was no more than 200 nM; in test [3] (setting [9]), 130 nM.

For `COc1cc2nc(NCCCCNC(=O)OC3CCCC3)c3nnc(C)n3c2cc1OC` [Example 66, [4-(7,8-dimethoxy-1-methyl-[1,2,4]triazolo[4,3-a]quinoxaline-4-ylamino)-butyl]-carbamic acid cyclopentyl-ester], the IC50 in test [1] (setting [4]) is no more than 500 nM; in test [1] (setting [5]), 58 nM; in test [2] (setting [6]), no more than 50 nM; in test [2] (setting [7]), 13 nM; in test [3] (setting [8]), no more than 200 nM; in test [3] (setting [9]), 110 nM.

Consider `COc1cc2nc(NCCCCNC(=O)Oc3ccccc3)c3nnc(C)n3c2cc1OC` [Example 67, [4-(7,8-dimethoxy-1-methyl-[1,2,4]triazolo[4,3-a]quinoxaline-4-ylamino)-butyl]-carbamic acid phenylester], for which the IC50 in test [1] (setting [4]) is no more than 500 nM; in test [1] (setting [5]), 170 nM; in test [2] (setting [7]), 19 nM; in test [2] (IC50, BRD4 binding inhibition, GST-BRD4 (BD1+BD2) / biotinylated acetyl-histone H4 (Lys5,8,12,16) peptide), no more than 50 nM; in test [3] (setting [8]) it was no more than 200 nM; in test [3] (setting [9]), 140 nM.

Consider `COc1cc2nc(NCCCCNC(=O)CC(C)C)c3nnc(C)n3c2cc1OC` [Example 74, N-[4-(7,8-dimethoxy-1-methyl-[1,2,4]triazolo[4,3-a]quinoxaline-4-ylamino)-butyl]-3-methyl-butyramide], for which the IC50 in test [1] (setting [4]) is no more than 500 nM; in test [1] (setting [5]) it was 170 nM; in test [2] (setting [6]), no more than 50 nM; in test [2] (setting [7]), 28 nM; in test [3] (setting [8]), no more than 200 nM; in test [3] (setting [9]), 110 nM.

Turning to `COc1cc2nc(NCCCCNC(=O)CC(C)(C)C)c3nnc(C)n3c2cc1OC` [Example 75, N-[4-(7,8-dimethoxy-1-methyl-[1,2,4]triazolo[4,3-a]quinoxaline-4-ylamino)-butyl]-3,3-dimethyl-butyramide], the IC50 in test [1] (setting [5]) was 790 nM; in test [2] (setting [6]), no more than 50 nM; in test [2] (setting [7]), 28 nM; in test [3] (setting [9]), 340 nM.

Take `CCC(C)C(=O)NCCCCNc1nc2cc(OC)c(OC)cc2n2c(C)nnc12` (centres unmarked) [Example 77, N-[4-(7,8-dimethoxy-1-methyl-[1,2,4]triazolo[4,3-a]quinoxaline-4-ylamino)-butyl]-2-methyl-butyramide]: the IC50 in test [1] (setting [5]) was 920 nM; in test [2] (setting [6]) it was no more than 50 nM; in test [2] (setting [7]), 22 nM; in test [3] (setting [8]) it was no more than 200 nM; in test [3] (setting [9]) it was 150 nM.

As to `COc1cc2nc(NCCCCNC(=O)Cc3cccs3)c3nnc(C)n3c2cc1OC` [Example 84, N-[4-(7,8-dimethoxy-1-methyl-[1,2,4]triazolo[4,3-a]quinoxaline-4-ylamino)-butyl]-2-thiophene-2-yl-acetamide], the IC50 in test [1] (setting [4]) is no more than 500 nM; in test [1] (setting [5]) it was 27 nM; in test [2] (setting [6]), no more than 50 nM; in test [2] (setting [7]), 14 nM; in test [3] (setting [8]), no more than 200 nM; in test [3] (setting [9]), 10 nM.

As for `COc1cc2nc(NCCCCNC(=O)NC(C)(C)C)c3nnc(C)n3c2cc1OC` [Example 88, 1-tert-butyl-3-[4-(7,8-dimethoxy-1-methyl-[1,2,4]triazolo[4,3-a]quinoxaline-4-ylamino)-butyl]-urea], the IC50 was 970 nM in test [1] (setting [5]), no more than 50 nM in test [2] (setting [6]), 18 nM in test [2] (setting [7]) and 510 nM in test [3] (setting [9]).

Turning to `COc1cc2nc(NCCCCNC(=O)NC(C)C)c3nnc(C)n3c2cc1OC` [Example 90], the IC50 in test [1] (setting [4]) is no more than 500 nM; in test [1] (setting [5]) it was 400 nM; in test [2] (setting [7]) it was 63 nM; in test [3] (setting [9]), 300 nM.
